# Tested on: seeds of wheat
# Experimental: Different levels of silicic acid were tested on seeds and in pot experiments to assess their effects on improvement of seed and the growth and yield in wheat.
substance,measurement,setting,value
silicic acid,plant growth and yield,"0.25% and 0.50% silicic acid application, all the varieties of wheat",highest
same,rate of germination,"silicic acid applied at 0.25-0.50% level, wheat seeds",increased

# Reference: patent US9756861B2, “Micro-colloidal silicic acid / boric acid composition and a method of preparing a bioenhancing solution and powder” (Barlaa B.V., priority 2009, dated 2017)
